Results taken from US20030040015A1, “Methods and reagents for identifying compounds and mutations that modulate dopamine beta-hydroxylase activity” (priority 2001, published 2003).

Key:
NE deficient patients [1] = conditions: Biaggioni et al. Lancet 1987; cited from earlier work
DBH-/- mouse embryos = conditions: DBH-/- embryos that usually die in utero; Thomas et al.; cited from earlier work
NE deficient patients [2] = assay: Physiological and pharmacological autonomic function tests in NE deficient patients; type: in vivo, human; conditions: for block of heart rate increase during strain phase (phase II) of the Valsalva maneuver: human, in vivo
From the text: We collected DNA samples from two patients with NE deficiency, and sequenced all exons and exon/intron junctions of their DBH, Phox2a, and Phox2b genes. Resulting novel variants were then examined in the first degree relatives of the NE deficient patients, healthy European-American controls, and in patients with autonomic disorders other than NE deficiency. […] These patients have been previously reported (Robertson D, et al. N Engl J Med; 314:1494, 1986; Biaggioni I, et al. Neurology, 40:370, 1990). The patients were evaluated on the Vanderbilt General Clinical Research Center while in balance on a 150 mEq sodium and 80 mEq potassium diet one week after discontinuation of medications. Both direct and indirect hemodynamic monitoring was carried out and a variety of physiological and pharmacological tests were employed. Catecholamines and their metabolites were analyzed by radioenzymatic and liquid chromatographic methods as described previously (Robertson D, et al. N Engl J Med, 314:1494, 1986; O'Connor D T, et al. Clin Sci, 86:149, 1994).

CHF patients = conditions: recent clinical studies; cited from earlier work

## N[C@H](C(=O)O)[C@H](O)c1ccc(O)c(O)c1 [DOPS, dihydroxyphenylserine]
NE deficient patients [1]
  treatment of autonomic and biochemical deficits of NE deficient patients: successfully treated
DBH-/- mouse embryos
  rescue of homozygous mouse embryos: rescued homozygous mouse embryos

## CN1[C@@H]2CC[C@H]1C[C@@H](OC(=O)C(CO)c1ccccc1)C2 (some centres unmarked) [atropine]
NE deficient patients [2]
  block of heart rate increase during strain phase (phase II) of the Valsalva maneuver: blocked

## COc1ccccc1OCCNCC(O)COc1cccc2[nH]c3ccccc3c12 (centres unmarked) [carvedilol]
CHF patients
  mortality and risk of death and hospitalization: reduced mortality and the risk of death and hospitalization

## Clc1cccc(Cl)c1N=C1NCCN1 [clonidine]
NE deficient patients [2]; 0.3 mg po, decrease expected
  effect on arterial pressure: increase in arterial pressure

## CC(C)NCC(O)c1ccc(O)c(O)c1 (centres unmarked) [isoproterenol]
NE deficient patients [2]; two NE deficient patients
  hypersensitivity to the tachycardic effect of the β-adrenoreceptor agonist: three-fold hypersensitivity

## CNC[C@H](O)c1cccc(O)c1 [phenylephrine]
NE deficient patients [2]; intravenous, two NE deficient patients
  hypersensitivity to intravenous α1-adrenoreceptor agonist: four-fold hypersensitivity

## CC(C)NCC(O)COc1cccc2ccccc12 (centres unmarked) [propranolol]
NE deficient patients [2]
  block of heart rate increase during strain phase (phase II) of the Valsalva maneuver: not

## NCCc1ccc(O)cc1 [tyramine]
NE deficient patients [2]; 8 mg IV
  response to indirectly acting sympathomimetic amine: absent response

## COC(=O)[C@@H]1[C@H]2C[C@H]3c4[nH]c5ccccc5c4CCN3C[C@@H]2CC[C@@H]1O [yohimbine]
NE deficient patients [2]; 10 mg po
  effect on blood pressure: no effect
  effect on plasma catecholamines: no effect
